This passage reports GI50, inhibition and IC50 results from patent publication US20230133958A1, “COMPOUNDS USEFUL IN MODULATING EGFR AND PI3K” (Mekanistic Therapeutics LLC, priority 2021, published 2023).

The subject of one experiment is NCI-H226. In words: NCI COMPARE panel (SRB growth inhibition), NCI-H226. Format: cell-based. The following applies: Homo sapiens; Non-Small Cell Lung Cancer, NCI-H226, 48 h. On the procedure: (§1) The human tumor cell lines of the cancer screening panel are grown in RPMI 1640 medium containing 5% fetal bovine serum and 2 mM L-glutamine. For a typical screening experiment, cells are inoculated into 96 well microtiter plates in 100 µL at plating densities ranging from 5,000 to 40,000 cells/well depending on the doubling time of individual cell lines. After cell inoculation, the microtiter plates are incubated at 37° C., 5% CO2, 95% air and 100% relative humidity for 24 h prior to addition of experimental drugs.
(§2) After 24 h, two plates of each cell line are fixed in situ with TCA, to represent a measurement of the cell population for each cell line at the time of drug addition (Tz). Experimental drugs are solubilized in dimethyl sulfoxide at 400-fold the desired final maximum test concentration and stored frozen prior to use. […]
(§3) Following drug addition, the plates are incubated for an additional 48 h at 37° C., 5 % CO2, 95% air, and 100% relative humidity. […] Bound stain is subsequently solubilized with 10 mM trizma base, and the absorbance is read on an automated plate reader at a wavelength of 515 nm. […] Using the seven absorbance measurements [time zero, (Tz), control growth, (C), and test growth in the presence of drug at the five concentration levels (Ti)], the percentage growth is calculated at each of the drug concentrations levels. Percentage growth inhibition is calculated as: […]

For another experiment, the system named is SF-539. In words: NCI COMPARE panel (SRB growth inhibition), SF-539. The class given is cell-based. As to conditions: Homo sapiens; CNS Cancer, SF-539, 48 h. On the procedure: as §1, §2, §3
The test system of the next experiment is IGROV1. In words: NCI COMPARE panel (SRB growth inhibition), IGROV1. The class given is cell-based. The following applies: Homo sapiens, IGROV-1; Ovarian Cancer, IGROV1, 48 h. On the procedure: as §1, §2, §3
Another experiment deals with DNA-PK (Homo sapiens, UniProt P78527). In words: Z'-LYTE / Adapta biochemical kinase assay, DNA-PK. The following applies: for inhibition at 0.1 µM: concentration of 100 nM/liter, read-out: Percent Inhibition of target enzymes, DNA-PK. From the text: The Z′-LYTE® biochemical assay employs a fluorescence-based, coupled-enzyme format and is based on the differential sensitivity of phosphorylated and non-phosphorylated peptides to proteolytic cleavage. The peptide substrate is labeled with two fluorophores—one at each end—that make up a FRET pair. In the primary reaction, the kinase transfers the gamma-phosphate of ATP to a single tyrosine, serine or threonine residue in a synthetic FRET-peptide. In the secondary reaction, a site-specific protease recognizes and cleaves non-phosphorylated FRET-peptides. Phosphorylation of FRET-peptides suppresses cleavage by the Development Reagent. Cleavage disrupts FRET between the donor (i.e., coumarin) and acceptor (i.e., fluorescein) fluorophores on the FRET-peptide, whereas uncleaved, phosphorylated FRET-peptides maintain FRET. A ratiometric method, which calculates the ratio (the Emission Ratio) of donor emission to acceptor emission after excitation of the donor fluorophore at 400 nm, is used to quantitate reaction progress.
A significant benefit of this ratiometric method for quantitating reaction progress is the elimination of well-to-well variations in FRET-peptide concentration and signal intensities. As a result, the assay yields very high Z′-factor values (>0.7) at a low percent phosphorylation.
Both cleaved and uncleaved FRET-peptides contribute to the fluorescence signals and therefore to the Emission Ratio. The extent of phosphorylation of the FRET-peptide can be calculated from the Emission Ratio. The Emission Ratio will remain low if the FRET-peptide is phosphorylated (i.e., no kinase inhibition) and will be high if the FRET-peptide is non-phosphorylated (i.e., kinase inhibition).
Enzyme: The ADAPTA universal kinase assay is a homogenous, fluorescent based immunoassay for the detection of ADP. In contrast to ATP depletion assays, the ADAPTA assay is extremely sensitive to ADP formation such that a majority of the signal change occurs in the first 10-20% conversion of ATP to ADP. This makes the ADAPTA universal kinase assay ideally suited for use with low activity kinases.
The principle of the ADAPTA universal kinase assay is outlined below. The assay itself can be divided into two phases: a kinase reaction phase, and an ADP detection phase. In the kinase reaction phase, all components required for the kinase reaction are added to the well, and the reaction is allowed to incubate for 60 minutes. After the reaction, a detection solution consisting of a europium labeled anti-ADP antibody, an Alexa Fluor® 647 labeled ADP tracer, and EDTA (to stop the kinase reaction) is added to the assay well. ADP formed by the kinase reaction (in the absence of an inhibitor) will displace the Alexa Fluor® 647 labeled ADP tracer from the antibody, resulting in a decrease in the TR-FRET signal. In the presence of an inhibitor, the amount of ADP formed by the kinase reaction is reduced, and the resulting intact antibody-tracer interaction results in a high TR-FRET signal.
Test Compounds: The Test Compounds are screened in 1% DMSO (final) in the well. For 10 point titrations, 3-fold serial dilutions are conducted from the starting concentration of the customer’s choosing.
Peptide/Kinase Mixtures: All Peptide/Kinase Mixtures are diluted to a 2X working concentration in the appropriate Kinase Buffer.
ATP Solution: All ATP Solutions are diluted to a 4X working concentration in Kinase Buffer (50 mM HEPES pH 7.5, 0.01% BRIJ-35, 10 mM MgCl2,1 mM EGTA). ATP Km apparent is previously determined using a Z′-LYTE® assay.
Development Reagent Solution: The Development Reagent is diluted in Development Buffer.
Assay Protocol: Bar-coded Corning, low volume NBS, black 384-wellplate (Corning Cat. #4514) 1. 2.5 µL - 4X Test Compound or 100 nL 100X plus 2.4 µL kinase buffer. 2. 5 µL - 2X Peptide/Kinase Mixture. 3. 2.5 µL - 4X ATP Solution. 4. 30-second plate shake. 5. 60-minute Kinase Reaction incubation at room temperature. 6. 5 µL - Development Reagent Solution. 7. […]

In general, GI50 refers to the concentration that inhibits growth by half. Read a low GI50 as greater sensitivity of the cells. For orientation: inhibition means the share of the control response that was lost under treatment. As for `CS(=O)(=O)Nc1cc(-c2ccc3ncc(C#N)c(Nc4cccc(Cl)c4F)c3c2)cnc1Cl` [Compound 10, N-[2-chloro-5-[4-(3-chloro-2-fluoro-anilino)-3-cyano-6-quinolyl]-3-pyridyl]methanesulfonamide], the concentration for 50% growth inhibition (GI50) is more than 250 nM in the experiment on NCI-H226, 125 to 250 nM in the experiment on SF-539 and 75 to 125 nM with IGROV1. Further, the inhibition at 0.1 µM on DNA-PK was more than 90%.

Usually IC50 stands for the concentration at which inhibition is half-maximal. Lower therefore signals inhibition by little substance. `CS(=O)(=O)Nc1cc(-c2ccc3ncnc(Nc4cccc(Cl)c4F)c3c2)cnc1Cl` [Compound 6, N-[2-chloro-5-[4-(3-chloro-2-fluoro-anilino)quinazolin-6-yl]-3-pyridyl] methanesulfonamide]: the values for the concentration for 50% growth inhibition (GI50) in the experiment with NCI-H226, with SF-539 and in the experiment on IGROV1 were more than 250 nM, 125 to 250 nM and not above 75 nM, respectively. The compound also registered a concentration for half-maximal inhibition (IC50) at DNA-PK (DNA-PK) not above 2 nM. Also, the inhibition at 0.1 µM on DNA-PK was more than 90%.
